From patent US11046709B2, “Fused 1,4-diazepines as BET bromodomain inhibitors” (THE REGENTS OF THE UNIVERSITY OF MICHIGAN, priority 2017, dated 2021) come the findings set out here.

Series [1] is described as follows: Plasma exposure after oral gavage in mice, LC-MS/MS. The format is in vivo. The settings on record: mouse, plasma, mice, oral gavage 25 mg/kg; for concentration at 1 h: read-out: Plasma concentration (ng/mL) 1 h; for concentration at 3 h: read-out: Plasma concentration (ng/mL) 3 h; for concentration at 6 h: read-out: Plasma concentration (ng/mL) 6 h. The method, then: For a number of representative compounds in Table 5, their plasma exposures with oral administration in mice via oral gavage were determined by LC-MS/MS, with the data shown in Table 9.

A further series addresses T1, recombinant BRD4 BD2 (Homo sapiens, UniProt O60885).
T1 construct: for recombinant BRD4 BD1 and BRD4 BD2 proteins
Kind of series: Competitive fluorescence-polarization (FP) binding assay, BRD4 BD2. The settings on record: competitive FP, Table 6; read-out: IC50 as determinined in FP assays BRD4 BD2.

The test system of another series is MDA-MB-231. The series can be described thus: Cell growth inhibition, 4-day proliferation assay, MDA-MB-231. The class given is cell-based. Conditions: Homo sapiens, MDA-MB-231; WST-8 assay, Table 7; read-out: Cell growth inhibition (IC50 (nM)) MDA-MB-231. Summed up:
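Cells seeded at 3,000-10,000/well, treated with serially diluted compounds 4 days at 37 °C, 5% CO2. Viability by WST-8 (10% v/v, 1-2 h, A450); readings normalized to DMSO-treated cells, IC50 by four-parameter nonlinear regression.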
Background: Formazan colour is commonly taken as a measure of viable cells.

The next series concerns MOLM-13. The series can be described thus: Cell growth inhibition, 4-day proliferation assay, MOLM-13. The format is cell-based. The settings on record: Homo sapiens, MOLM-13, WST-8 assay, Table 7; read-out: Cell growth inhibition (IC50 (nM)) MOLM-13.
The target in a further series is T2, recombinant BRD4 BD1 (Homo sapiens, UniProt O60885).
T2 construct: for recombinant BRD4 BD1 and BRD4 BD2 proteins
The series can be described thus: Competitive fluorescence-polarization (FP) binding assay, BRD4 BD1. Conditions: competitive FP, Table 6; read-out: IC50 as determinined in FP assays BRD4 BD1. The method, then:
Fluorescence Polarization (FP) competitive binding studies were carried out using a FAM labeled fluorescent probe, see, e.g., Cpd. No. 350 of US 2014/0256706, to determine binding affinities of representative Compounds of the Disclosure for recombinant BRD4 BD1 and BRD4 BD2 proteins. Equilibrium dissociation constants (Kd) values of the fluorescent probe to BRD4 BD1 and BD2 proteins were determined from protein saturation experiments by monitoring the total fluorescence polarization of mixtures composed with the fluorescent probe at a fixed concentration and proteins with increasing concentrations up to full saturation. Serial dilutions of testing proteins were mixed with the fluorescent probe to a final volume of 200 μl in the assay buffer (100 mM phosphate buffer, pH=6.5, 0.01% Triton X-100 (Sigma, 282103) being added right before assays). Final fluorescent probe concentration was 1.5 nM for both proteins. Plates were incubated at room temperature for 30 minutes with gentle shaking to assure equilibrium. FP values in millipolarization units (mP) were measured using the Infinite M-1000 plate reader (Tecan U.S., Research Triangle Park, N.C.) in Microfluor 1 96-well, black, round-bottom plates (Thermo Scientific, Waltham, Mass.) at an excitation wavelength of 485 nm and an emission wavelength of 530 nm. Kd values of the fluorescent probe, which were calculated by fitting the sigmoidal dose-dependent FP increases as a function of protein concentrations using Graphpad Prism 6.0 software (Graphpad Software, San Diego, Calif.), are 5.5 and 3.0 nM to BDR4 BD1 and 2, respectively.
The IC50 and Ki values of compounds were determined in a competitive binding experiment. See US 2014/0256706. Mixtures of 10 μl of the tested compounds in assay buffer with 40% Ethylene Glycol and 190 μl of preincubated protein/probe complex solution in the assay buffer (100 mM potassium phosphate, pH 6.5, 0.01% Triton X-100) were added into assay plates which were incubated at room temperature for 30 minutes with gentle shaking. Final concentrations of proteins were 10 and 6 nM in assays for BRD4 BD1 and BD2, respectively. Final probe concentration is 1.5 nM in both assays. Negative controls containing protein/probe complex only (equivalent to 0% inhibition), and positive controls containing only free probes (equivalent to 100% inhibition), were included in each assay plate. FP values were measured as described above. IC50 values were determined by nonlinear regression fitting of the competition curves. Instead of being calculated from IC50 values as described before. Ki values of competitive inhibitors were obtained directly by nonlinear regression fitting as well, based upon the Kd values of the probe to different proteins, and concentrations of the proteins and probes in the competitive assays (US 2014/0256706; Wang, FEBS Lett. 360:111 (1995); Zhang et al., Analytical Biochemistry, 331:138 (2004)).
Representative compounds in Table 5 were evaluated for their binding affinities to BRD4 BD1 and BD2 proteins using the Competitive Fluorescence-Polarization (FP) Assays described in Example 6, with the data included in Table 6.

The structures appear in SMILES notation.

One may read the IC50 as the midpoint of a concentration-inhibition curve. As for `CCNC(=O)C[C@@H]1N=C(c2ccc(Cl)cc2)c2c(sc(C#Cc3ccccn3)c2C)-n2c(C)nnc21` [Compound 110, (S)-2-(4-(4-chlorophenyl)-3,9-dimethyl-2-(pyridin-2-ylethynyl)-6H-thieno[3,2-f][1,2,4]triazolo[4,3-a][1,4]diazepin-6-yl)-N-ethylacetamide], the concentration at 1 h in series [1] worked out at 1540 ng/mL. In addition, the concentration at 3 h in series [1] was 1160 ng/mL. Further, the concentration at 6 h in series [1] was determined as 123 ng/mL. In addition, the IC50 on recombinant BRD4 BD2 turned out to be 27.5 nM; with MDA-MB-231, 310 ± 100 nM; in the series on MOLM-13, 47.7 nM; at recombinant BRD4 BD1, 8.5 nM.

`Cc1c(C#Cc2ccccn2)sc2c1C(c1ccc(Cl)cc1)=N[C@@H](CC(=O)N1CCN(C)CC1)c1nnc(C)n1-2` [Compound 119, (S)-2-(4-(4-chlorophenyl)-3,9-dimethyl-2-(pyridin-2-ylethynyl)-6H-thieno[3,2-f][1,2,4]triazolo[4,3-a][1,4]diazepin-6-yl)-1-(4-methylpiperazin-1-yl)ethan-1-one]: the concentration at 1 h in series [1] was 632 ng/mL. Further, the concentration at 3 h in series [1] turned out to be 370 ng/mL. The concentration at 6 h in series [1] worked out at 52 ng/mL. Further, the IC50 on recombinant BRD4 BD2 turned out to be 140 nM; in the series on MDA-MB-231, 38.1 nM; in the series on MOLM-13, 20.9 nM; on recombinant BRD4 BD1, 6.9 nM.

Regarding `Cc1c(C#Cc2ccccn2)sc2c1C(c1ccc(Cl)cc1)=N[C@@H](CC(=O)Nc1ccc(O)cc1)c1nnc(C)n1-2` [Compound 125, (S)-2-(4-(4-chlorophenyl)-3,9-dimethyl-2-(pyridin-2-ylethynyl)-6H-thieno[3,2-f][1,2,4]triazolo[4,3-a][1,4]diazepin-6-yl)-N-(4-hydroxyphenyl)acetamide], the concentration at 1 h in series [1] was found to be 2520 ng/mL. The concentration at 3 h in series [1] stood at 407 ng/mL. Moreover, the concentration at 6 h in series [1] amounted to 83 ng/mL. Further, the IC50 on recombinant BRD4 BD2 turned out to be 13.9 nM; in the series on MDA-MB-231, 132 nM; with MOLM-13, 31 nM; on recombinant BRD4 BD1 it was 10.2 nM.

For `Cc1c(C#Cc2ccccn2)sc2c1C(c1ccc(Cl)cc1)=N[C@@H](CC(=O)N1CCOCC1)c1nnc(C)n1-2` [Compound 126, (S)-2-(4-(4-chlorophenyl)-3,9-dimethyl-2-(pyridin-2-ylethynyl)-6H-thieno[3,2-f][1,2,4]triazolo[4,3-a][1,4]diazepin-6-yl)-1-morpholinoethan-1-one], the concentration at 1 h in series [1] is 2910 ng/mL. Also, in series [1], the concentration at 3 h is 599 ng/mL. For the same molecule, in series [1], the concentration at 6 h came out at 473 ng/mL. Besides, the IC50 was determined as 27.8 nM on recombinant BRD4 BD2, 60.7 nM in the series with MDA-MB-231, 13.5 nM with MOLM-13 and 8.7 nM at recombinant BRD4 BD1.

For the molecule `Cc1nnc(C[C@@H]2N=C(c3ccc(Cl)cc3)c3c(sc(C#CC4CC4)c3C)-n3c(C)nnc32)o1` [Compound 143, (S)-2-((4-(4-chlorophenyl)-2-(cyclopropylethynyl)-3,9-dimethyl-6H-thieno[3,2-f][1,2,4]triazolo[4,3-a][1,4]diazepin-6-yl)methyl)-5-methyl-1,3,4-oxadiazole], the concentration at 1 h in series [1] is 3170 ng/mL. Further, the concentration at 3 h in series [1] worked out at 2700 ng/mL. Moreover, the concentration at 6 h in series [1] is 3670 ng/mL. In addition, the IC50 was found to be 21.6 nM on recombinant BRD4 BD2, 6.59 nM with MDA-MB-231, 6.06 nM in the series on MOLM-13 and 8.86 nM at recombinant BRD4 BD1.

As for `Cc1nnc(C[C@@H]2N=C(c3ccc(Cl)cc3)c3c(sc(C#CC(C)(C)O)c3C)-n3c(C)nnc32)o1` [Compound 144, (S)-4-(4-(4-chlorophenyl)-3,9-dimethyl-6-((5-methyl-1,3,4-oxadiazol-2-yl)methyl)-6H-thieno[3,2-f][1,2,4]triazolo[4,3-a][1,4]diazepin-2-yl)-2-methylbut-3-yn-2-ol], in series [1], the concentration at 1 h is 4160 ng/mL. For the same molecule, in series [1], the concentration at 3 h was 7580 ng/mL. Besides, in series [1], the concentration at 6 h is 1120 ng/mL. Further, the IC50 amounted to 26.4 nM at recombinant BRD4 BD2, 288 nM with MDA-MB-231, 36.4 nM with MOLM-13 and 21.8 nM at recombinant BRD4 BD1.

For `Cc1nnc(C[C@@H]2N=C(c3ccc(Cl)cc3)c3c(sc(C#CC4CCNCC4)c3C)-n3c(C)nnc32)o1` [Compound 174, (S)-2-((4-(4-chlorophenyl)-3,9-dimethyl-2-(piperidin-4-ylethynyl)-6H-thieno[3,2-f][1,2,4]triazolo[4,3-a][1,4]diazepin-6-yl)methyl)-5-methyl-1,3,4-oxadiazole], the concentration at 1 h in series [1] was 56 ng/mL. The concentration at 3 h in series [1] came out at 12 ng/mL. In addition, the concentration at 6 h in series [1] stood at 3 ng/mL. Further, the IC50 was 46 nM at recombinant BRD4 BD2, 9.43 nM in the series with MDA-MB-231, 3.1 nM in the series on MOLM-13 and 49.9 nM at recombinant BRD4 BD1.

Turning to `Cc1nnc(C[C@@H]2N=C(c3ccc(Cl)cc3)c3c(sc(C#CC4CCN(C)CC4)c3C)-n3c(C)nnc32)o1` [Compound 175, (S)-2-((4-(4-chlorophenyl)-3,9-dimethyl-2-((1-methylpiperidin-4-yl)ethynyl)-6H-thieno[3,2-f][1,2,4]triazolo[4,3-a][1,4]diazepin-6-yl)methyl)-5-methyl-1,3,4-oxadiazole], the concentration at 1 h in series [1] is 413 ng/mL. Also, the concentration at 3 h in series [1] came out at 384 ng/mL. The concentration at 6 h in series [1] stood at 68 ng/mL. Also, the IC50 on recombinant BRD4 BD2 was found to be 93.2 nM; in the series on MDA-MB-231 it was 3.96 nM; in the series with MOLM-13, 5 nM; on recombinant BRD4 BD1, 31.8 nM.
